In PMC6461495 (ACS infectious diseases, 2019):

System: synchronous late-stage P. falciparum iRBC
Assay type: cell-based, Plasmodium falciparum CS2
Conditions: late-stage iRBC, 1, 2, 5, 10, 15 or 20 μM, 24 h post-treatment, flow cytometry

FAM-βAla-ILGST*LKG*AQQTSAFLK (sidechain bridge or staple) [JDD scramble]
effect on parasite viability at any concentration tested: no effect on parasite viability
